Marks after values point to notes of the source that are not given here.
Legend:
[1] = system: normal mice (C57BL/6J); test: Oral glucose tolerance test of normal mice; type: in vivo, mouse; design: AUC0-120 min: unit not given beside the values
Method: 2. Experimental method: normal mice, obese mice and diabetic mice were used for studying glucose tolerance tests Experimental process of OGTT (Oral Glucose Tolerance Test): fasting for 6 hours before the test begins, 60 min after drug administration, glucose was administrated by gavage (drug concentration 0.6 mg/ml, administration volume 5 ml/kg) (2 g/kg glucose was administrated to diabetic mice; 2 g/kg glucose was administrated to obese mice; and 5 g/kg glucose was administrated to normal mice), blood glucose values at 0 min, 15 min, 30 min, 45 min, 60 min and 120 min are respectively determined after glucose administration, […]

[2] = biological target: humanized recombinant DPP8 (Homo sapiens (Human), UniProt Q6V1X1); test: Drug selectivity experiment in vitro, DPP8; type: biochemical
Chain of humanized recombinant DPP8 (Q6V1X1 whole entry): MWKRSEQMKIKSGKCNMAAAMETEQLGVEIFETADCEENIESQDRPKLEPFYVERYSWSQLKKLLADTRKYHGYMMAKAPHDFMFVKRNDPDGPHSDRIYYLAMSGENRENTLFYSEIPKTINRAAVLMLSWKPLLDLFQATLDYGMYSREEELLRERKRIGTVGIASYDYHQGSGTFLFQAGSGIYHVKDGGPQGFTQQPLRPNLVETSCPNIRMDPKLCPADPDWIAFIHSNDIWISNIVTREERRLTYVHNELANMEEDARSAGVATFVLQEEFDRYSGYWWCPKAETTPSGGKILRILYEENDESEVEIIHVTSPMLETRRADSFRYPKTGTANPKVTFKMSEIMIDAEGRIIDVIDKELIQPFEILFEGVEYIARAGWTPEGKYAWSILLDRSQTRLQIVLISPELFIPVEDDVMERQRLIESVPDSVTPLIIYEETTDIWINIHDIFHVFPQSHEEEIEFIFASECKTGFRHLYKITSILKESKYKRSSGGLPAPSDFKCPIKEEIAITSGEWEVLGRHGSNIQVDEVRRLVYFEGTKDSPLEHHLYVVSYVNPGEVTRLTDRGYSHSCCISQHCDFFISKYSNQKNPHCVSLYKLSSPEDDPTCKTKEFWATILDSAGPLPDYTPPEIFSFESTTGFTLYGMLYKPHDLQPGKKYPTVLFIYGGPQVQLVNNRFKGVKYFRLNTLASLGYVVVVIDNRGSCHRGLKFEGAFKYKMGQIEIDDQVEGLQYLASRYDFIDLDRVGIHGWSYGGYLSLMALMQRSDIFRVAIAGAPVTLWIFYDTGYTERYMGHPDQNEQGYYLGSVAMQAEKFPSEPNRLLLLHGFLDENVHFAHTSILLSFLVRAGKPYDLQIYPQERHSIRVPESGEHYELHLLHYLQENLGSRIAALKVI

[3] = biological target: CYP1A2 (Homo sapiens (Human), UniProt P05177); test: biochemical; type: in vitro ADME
Chain of CYP1A2 (P05177 whole entry): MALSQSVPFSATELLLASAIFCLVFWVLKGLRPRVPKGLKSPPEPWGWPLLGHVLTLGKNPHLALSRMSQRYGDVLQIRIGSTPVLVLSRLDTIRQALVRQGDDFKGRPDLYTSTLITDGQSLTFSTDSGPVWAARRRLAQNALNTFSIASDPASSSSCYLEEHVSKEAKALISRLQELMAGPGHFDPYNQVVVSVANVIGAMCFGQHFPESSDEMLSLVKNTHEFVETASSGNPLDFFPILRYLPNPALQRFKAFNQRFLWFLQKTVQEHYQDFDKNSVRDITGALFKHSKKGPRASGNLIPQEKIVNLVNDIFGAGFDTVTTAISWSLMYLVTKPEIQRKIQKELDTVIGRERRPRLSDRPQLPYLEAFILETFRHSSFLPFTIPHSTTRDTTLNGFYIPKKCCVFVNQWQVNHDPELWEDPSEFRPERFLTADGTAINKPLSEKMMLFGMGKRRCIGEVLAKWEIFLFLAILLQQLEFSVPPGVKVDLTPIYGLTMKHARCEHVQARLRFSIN
Method: (§1) 1. Test method: human liver microsomes were used to carry out inhibition activity test of the compounds to CYP enzyme. With the system for incubating human liver microsomes in vitro, the content variation of phenacetin, diclofenac, S-mephenytoin, dextromethorphan and midazolam, which were substrates of human liver microsomes CYP1A2, CYP2C9, CYP2C19, CYP2D6, CYP3A4, were measured simultaneously by cocktail probe drug method (which is a disclosed technology), the effects of TSL-0319 under different concentrations on activity of human liver microsomes CYP1A2, CYP2C9, CYP2C19, CYP2D6, CYP3A4 subtypes are evaluated and relevant IC50 was measured.

[4] = biological target: CYP2C9 (Homo sapiens (Human), UniProt P11712); test: biochemical; type: in vitro ADME
Chain of CYP2C9 (P11712 whole entry): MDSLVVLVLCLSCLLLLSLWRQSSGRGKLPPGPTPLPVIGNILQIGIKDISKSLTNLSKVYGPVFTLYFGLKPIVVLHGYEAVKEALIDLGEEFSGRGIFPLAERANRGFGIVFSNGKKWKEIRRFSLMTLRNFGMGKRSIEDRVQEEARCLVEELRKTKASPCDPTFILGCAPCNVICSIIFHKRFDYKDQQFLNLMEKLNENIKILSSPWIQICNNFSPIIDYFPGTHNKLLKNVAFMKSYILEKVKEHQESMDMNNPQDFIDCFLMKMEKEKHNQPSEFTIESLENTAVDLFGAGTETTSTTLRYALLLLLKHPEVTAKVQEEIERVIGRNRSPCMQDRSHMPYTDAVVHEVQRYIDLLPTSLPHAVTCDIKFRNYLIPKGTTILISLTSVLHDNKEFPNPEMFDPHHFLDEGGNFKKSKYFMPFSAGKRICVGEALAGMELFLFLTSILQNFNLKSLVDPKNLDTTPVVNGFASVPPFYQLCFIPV
Method: as §1

[5] = biological target: CYP2C19 (Homo sapiens (Human), UniProt P33261); test: biochemical; type: in vitro ADME
Chain of CYP2C19 (P33261 whole entry): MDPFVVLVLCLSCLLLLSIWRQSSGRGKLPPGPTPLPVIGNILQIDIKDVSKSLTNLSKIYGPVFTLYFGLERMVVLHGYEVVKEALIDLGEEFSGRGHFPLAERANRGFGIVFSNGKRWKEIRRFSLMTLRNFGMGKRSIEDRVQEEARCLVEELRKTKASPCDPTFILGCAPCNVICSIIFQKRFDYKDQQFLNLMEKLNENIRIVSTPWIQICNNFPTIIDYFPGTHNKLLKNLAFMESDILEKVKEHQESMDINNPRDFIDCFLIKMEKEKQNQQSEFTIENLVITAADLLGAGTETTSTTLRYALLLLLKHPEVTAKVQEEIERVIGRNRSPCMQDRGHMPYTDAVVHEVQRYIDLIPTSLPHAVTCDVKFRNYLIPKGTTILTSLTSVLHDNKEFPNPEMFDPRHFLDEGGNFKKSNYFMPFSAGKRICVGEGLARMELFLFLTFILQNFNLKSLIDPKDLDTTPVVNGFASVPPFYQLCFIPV
Method: as §1

[6] = biological target: CYP3A4 (Homo sapiens (Human), UniProt P08684); test: biochemical; type: in vitro ADME
Chain of CYP3A4 (P08684 whole entry): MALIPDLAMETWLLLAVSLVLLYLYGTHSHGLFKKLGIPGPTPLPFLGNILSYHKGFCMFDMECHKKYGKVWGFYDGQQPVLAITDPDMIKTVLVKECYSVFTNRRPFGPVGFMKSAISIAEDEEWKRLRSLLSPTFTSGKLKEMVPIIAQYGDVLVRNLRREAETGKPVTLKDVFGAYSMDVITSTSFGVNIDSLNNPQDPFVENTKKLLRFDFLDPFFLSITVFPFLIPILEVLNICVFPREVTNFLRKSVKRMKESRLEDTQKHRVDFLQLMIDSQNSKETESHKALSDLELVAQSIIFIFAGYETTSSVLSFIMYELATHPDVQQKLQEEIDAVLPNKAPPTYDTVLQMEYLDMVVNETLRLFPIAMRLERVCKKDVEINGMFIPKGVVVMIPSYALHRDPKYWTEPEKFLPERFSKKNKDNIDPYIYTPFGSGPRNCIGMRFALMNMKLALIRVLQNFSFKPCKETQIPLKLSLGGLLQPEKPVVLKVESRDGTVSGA
Method: as §1

[7] = biological target: CYP2D6 (Homo sapiens (Human), UniProt P10635); test: biochemical; type: in vitro ADME
Chain of CYP2D6 (P10635 whole entry): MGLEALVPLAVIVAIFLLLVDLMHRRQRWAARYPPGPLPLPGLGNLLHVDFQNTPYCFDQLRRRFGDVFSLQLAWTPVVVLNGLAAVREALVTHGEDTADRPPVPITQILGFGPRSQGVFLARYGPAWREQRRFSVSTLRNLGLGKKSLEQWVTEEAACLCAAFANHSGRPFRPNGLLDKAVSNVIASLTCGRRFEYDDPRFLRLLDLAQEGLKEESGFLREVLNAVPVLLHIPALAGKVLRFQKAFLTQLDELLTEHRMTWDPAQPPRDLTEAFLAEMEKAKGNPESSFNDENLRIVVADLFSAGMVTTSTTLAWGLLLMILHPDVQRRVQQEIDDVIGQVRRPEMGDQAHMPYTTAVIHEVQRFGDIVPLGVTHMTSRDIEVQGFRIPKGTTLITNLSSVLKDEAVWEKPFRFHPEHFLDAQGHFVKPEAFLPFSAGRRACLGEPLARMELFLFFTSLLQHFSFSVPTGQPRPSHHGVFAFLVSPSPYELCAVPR
Method: as §1

`CC#CCn1c(N2CCC[C@@H](N)C2)nc2c1c(=O)n(Cc1nccnc1C#N)c(=O)n2C` [Compound I-3, 1-[(3-cyano-pyrazine-2-yl)methyl]-3-methyl-7-(2-butyne-1-yl)-8-[(R)-3-amino-piperidine-1-yl]-xanthine] was tested, and the “Blood glucose concentration 0 min” value ([1]; normal mice C57BL/6J, drug at -60 min (0.6 mg/ml, 5 ml/kg), 5 g/kg glucose at 0 min) was 8.88* mmol/L, the hypoglycemic effect ([1]; normal mice, in words) was “good hypoglycemic effect” and the “Blood glucose concentration 15 min” value ([1]; normal mice, 15 min after glucose) was 14.6*** mmol/L. For the same compound, the “Blood glucose concentration 30 min” value ([1]; normal mice, 30 min after glucose) was 11.0*** mmol/L, the “Blood glucose concentration 45 min” value ([1]; normal mice, 45 min after glucose) was 9.23*** mmol/L and the “Blood glucose concentration 60 min” value ([1]; normal mice, 60 min after glucose) was 9.82*** mmol/L. For the same compound, the “Blood glucose concentration 120 min” value ([1]; normal mice, 120 min after glucose) was 7.58 mmol/L, the AUC0-120 min ([1]; normal mice, blood glucose AUC) was 1185*** and the IC50 [2] was > 100 µM. The “Selectivity (DPP8 column)” value ([2]; DPP8 versus DPP4) was > 1250000, the “inhibition effect to DPP8” value ([2]; in words) was “no inhibition effect” and the IC50 [3] was > 50 µM. For the same compound, the inhibition at 0.05 µM ([3]; human, microsomes) was 0%, the inhibition at 0.15 µM ([3]; human, microsomes) was 0% and the inhibition at 0.5 µM ([3]; human, microsomes) was 2.2%. For the same compound, the inhibition at 1.5 µM ([3]; human, microsomes) was 4.2%, the inhibition at 5 µM ([3]; human, microsomes) was 6.6% and the inhibition at 15 µM ([3]; human, microsomes) was 20.8%. The inhibition at 50 µM ([3]; human, microsomes) was 41.8%, the IC50 [4] was > 50 µM and the inhibition at 0.05 µM ([4]; human, microsomes) was 0%. The inhibition at 0.15 µM ([4]; human, microsomes) was 0%, the inhibition at 0.5 µM ([4]; human, microsomes) was 3.2% and the inhibition at 1.5 µM ([4]; human, microsomes) was 5.7%. For the same compound, the inhibition at 5 µM ([4]; human, microsomes) was 10.5%, the inhibition at 15 µM ([4]; human, microsomes) was 12.1% and the inhibition at 50 µM ([4]; human, microsomes) was 13.9%. For the same compound, the IC50 [5] was > 50 µM, the inhibition at 0.05 µM ([5]; human, microsomes) was 0% and the inhibition at 1.5 µM ([5]; human, microsomes) was 3.3%. The inhibition at 5 µM ([5]; human, microsomes) was 8.2%, the inhibition at 15 µM ([5]; human, microsomes) was 14% and the inhibition at 50 µM ([5]; human, microsomes) was 2.9%. The IC50 [6] was > 50 µM, the inhibition at 0.05 µM ([6]; human, microsomes) was 0% and the inhibition at 0.15 µM ([6]; human, microsomes) was 0%. The inhibition at 0.5 µM ([6]; human, microsomes) was 4%, the inhibition at 1.5 µM ([6]; human, microsomes) was 4.4% and the inhibition at 5 µM ([6]; human, microsomes) was 8.7%. For the same compound, the inhibition at 15 µM ([6]; human, microsomes) was 17.9%, the inhibition at 50 µM ([6]; human, microsomes) was 44.6% and the IC50 [7] was > 50 µM. For the same compound, the inhibition at 0.05 µM ([7]; human, microsomes) was 0%, the inhibition at 0.15 µM ([7]; human, microsomes) was 0% and the inhibition at 0.5 µM ([7]; human, microsomes) was 0%. It also gave an inhibition at 1.5 µM ([7]; human, microsomes) of 0%, an inhibition at 5 µM ([7]; human, microsomes) of 0% and an inhibition at 15 µM ([7]; human, microsomes) of 3%. It also gave an inhibition at 50 µM ([7]; human, microsomes) of 14.6%.

Reference: US10358449B2, “Xanthine derivative” (priority 2015, dated 2019)
